Reference: ChEMBL document CHEMBL1201862, “PubChem BioAssay data set” (2004)
Calls of active or inactive are those of the source.

Assays:
[1] = biological target: Cytochrome P450 3A4 (Homo sapiens, UniProt P08684); conditions: Potency;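 also: confirmatory qHTS run detecting inhibitors and substrates of CYP3A4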
[2] = tested on: Streptococcus sp. 'group A'; assay: growth inhibition of control SK(-) GAS strain, dose response, counter-screen for streptokinase expression inhibitor project, luminescence, kanamycin, BacTiterGlo, confirmation (AID 1900); assay type: functional, organism-based
[3] = biological target: T1, Streptokinase A (Streptococcus pyogenes serotype M1, UniProt P10520); assay: S. pyogenes streptokinase expression inhibitors, potency, dose response, plasminogen activation absorbance, OD405 (AID 1914); assay type: functional, Streptococcus pyogenes M1 GAS;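 also: secreted streptokinase activity via plasminogen activation per viability signal from cell pellet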
T1 sequence (P10520 whole entry): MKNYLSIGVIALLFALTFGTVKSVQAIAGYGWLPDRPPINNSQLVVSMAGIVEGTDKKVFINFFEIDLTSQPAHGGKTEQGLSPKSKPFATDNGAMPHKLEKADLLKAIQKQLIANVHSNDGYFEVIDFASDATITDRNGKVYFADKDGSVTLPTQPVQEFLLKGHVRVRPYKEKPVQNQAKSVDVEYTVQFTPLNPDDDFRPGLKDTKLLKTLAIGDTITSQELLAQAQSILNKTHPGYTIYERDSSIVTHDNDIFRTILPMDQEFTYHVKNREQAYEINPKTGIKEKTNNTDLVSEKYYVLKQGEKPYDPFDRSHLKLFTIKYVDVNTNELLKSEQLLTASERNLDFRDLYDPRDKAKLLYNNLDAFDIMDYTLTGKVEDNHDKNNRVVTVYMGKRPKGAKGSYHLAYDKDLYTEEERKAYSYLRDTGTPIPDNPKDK

[4] = biological target: T2, Calpain-2 catalytic subunit (Sus scrofa, UniProt P43367); assay: pig calpain II inhibitor potency, dose response, biochemical, fluorogenic peptide substrate (AID 1420); assay type: functional
T2 sequence (P43367 whole entry): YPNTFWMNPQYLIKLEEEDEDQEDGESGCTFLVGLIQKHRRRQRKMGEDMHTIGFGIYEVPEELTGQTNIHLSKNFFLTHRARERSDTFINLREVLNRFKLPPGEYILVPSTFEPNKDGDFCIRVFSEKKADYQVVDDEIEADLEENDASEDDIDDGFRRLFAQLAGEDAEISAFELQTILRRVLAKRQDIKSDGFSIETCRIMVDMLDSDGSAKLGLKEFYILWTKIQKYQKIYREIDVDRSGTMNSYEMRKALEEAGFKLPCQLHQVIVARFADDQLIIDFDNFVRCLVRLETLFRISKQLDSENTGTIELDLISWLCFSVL

[5] = tested on: Streptococcus; assay: Group A Streptococcus viability loss, dose response, counter-screen for streptokinase expression inhibitor project, luminescence, BacTiterGlo (AID 1915); assay type: functional, organism-based;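 also: potency for reduction of bacterial viability or growth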
[6] = biological target: T3, Short transient receptor potential channel 4 (Mus musculus, UniProt Q9QUQ5); assay: mouse TRPC4 channel activators, dose response, cell-based, HEK293 TRPC4/mu-opioid, Fluo-4 calcium (AID 434937); assay type: functional
T3 sequence (Q9QUQ5 whole entry): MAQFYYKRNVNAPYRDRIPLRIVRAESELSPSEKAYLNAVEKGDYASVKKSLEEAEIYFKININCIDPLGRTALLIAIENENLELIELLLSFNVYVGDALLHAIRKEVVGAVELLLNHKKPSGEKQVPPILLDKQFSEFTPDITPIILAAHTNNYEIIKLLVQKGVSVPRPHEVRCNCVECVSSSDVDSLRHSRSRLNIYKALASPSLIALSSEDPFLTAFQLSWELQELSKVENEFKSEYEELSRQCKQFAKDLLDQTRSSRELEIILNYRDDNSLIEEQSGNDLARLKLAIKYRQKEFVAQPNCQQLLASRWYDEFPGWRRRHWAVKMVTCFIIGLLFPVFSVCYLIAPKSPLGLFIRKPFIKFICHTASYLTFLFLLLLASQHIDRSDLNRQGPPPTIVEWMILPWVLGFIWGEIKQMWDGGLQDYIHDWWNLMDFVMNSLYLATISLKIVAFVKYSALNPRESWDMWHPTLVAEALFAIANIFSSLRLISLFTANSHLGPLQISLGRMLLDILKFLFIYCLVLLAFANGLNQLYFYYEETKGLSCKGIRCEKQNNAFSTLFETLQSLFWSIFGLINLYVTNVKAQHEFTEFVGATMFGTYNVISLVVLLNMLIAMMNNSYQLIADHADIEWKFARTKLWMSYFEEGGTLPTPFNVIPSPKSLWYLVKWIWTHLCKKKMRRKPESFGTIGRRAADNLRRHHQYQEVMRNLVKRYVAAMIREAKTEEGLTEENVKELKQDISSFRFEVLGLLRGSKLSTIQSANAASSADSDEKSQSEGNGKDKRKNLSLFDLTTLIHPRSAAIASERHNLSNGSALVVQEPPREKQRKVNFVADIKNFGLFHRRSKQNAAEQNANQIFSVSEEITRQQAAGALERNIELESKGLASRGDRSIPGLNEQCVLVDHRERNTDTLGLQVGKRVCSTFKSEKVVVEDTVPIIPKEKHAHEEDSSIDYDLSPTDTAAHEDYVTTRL

[7] = biological target: T4, RNA-binding protein pos-1 (Caenorhabditis elegans, UniProt G5EF15); assay: inhibitors of POS-1/mex-3 RNA binding, dose response, biochemical, fluorescence polarization (AID 1964);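 also: purified POS-1 fused to maltose binding protein made in E. coli; potency of compounds blocking POS-1 binding to fluorescent RNA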
T4 sequence (G5EF15 whole entry): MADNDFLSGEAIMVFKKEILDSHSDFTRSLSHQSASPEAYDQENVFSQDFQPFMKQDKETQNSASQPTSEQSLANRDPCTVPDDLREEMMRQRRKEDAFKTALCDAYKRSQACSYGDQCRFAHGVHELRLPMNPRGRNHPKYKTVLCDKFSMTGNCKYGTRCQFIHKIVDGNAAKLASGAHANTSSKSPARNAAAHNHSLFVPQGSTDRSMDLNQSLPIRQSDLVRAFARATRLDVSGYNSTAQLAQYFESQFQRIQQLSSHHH

[8] = biological target: T5, Zinc finger protein mex-5 (Caenorhabditis elegans, UniProt Q9XUB2); assay: MEX-5/TCR-2 RNA interaction inhibitors, dose response, biochemical, C. elegans, fluorescence polarization (AID 1960)
T5 sequence (Q9XUB2 whole entry): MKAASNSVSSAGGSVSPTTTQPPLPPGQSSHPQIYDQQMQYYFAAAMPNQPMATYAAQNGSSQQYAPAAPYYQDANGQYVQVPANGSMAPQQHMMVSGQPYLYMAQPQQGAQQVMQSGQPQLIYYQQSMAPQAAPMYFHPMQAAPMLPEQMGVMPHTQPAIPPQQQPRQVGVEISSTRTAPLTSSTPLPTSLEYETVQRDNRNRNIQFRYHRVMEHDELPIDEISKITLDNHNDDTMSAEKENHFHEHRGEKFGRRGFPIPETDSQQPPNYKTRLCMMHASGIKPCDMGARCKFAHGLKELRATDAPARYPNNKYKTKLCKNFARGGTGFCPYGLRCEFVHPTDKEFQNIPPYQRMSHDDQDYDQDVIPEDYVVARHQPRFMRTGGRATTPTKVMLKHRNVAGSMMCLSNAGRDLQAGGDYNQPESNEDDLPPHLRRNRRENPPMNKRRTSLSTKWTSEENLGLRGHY

[9] = inhibitors of intracellular T. cruzi replication, confirmation, NIH3T3 host cells, beta-gal luminescence (AID 2044); assay type: functional, cell-based;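 also: intracellular parasites grown in NIH/3T3 mouse fibroblasts as host cells; luminescent beta-galactosidase reporter signal from transgenic T. cruzi replicating inside host cells; inhibitors lower the luminescence signal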
[10] = cytotoxicity toward NIH3T3 fibroblasts, dose response, counter-screen, cell-based, ATP luminescence, mouse fibroblasts (AID 2010); assay type: functional;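 also: cells exposed to compound for about 90 hours before reading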
[11] = biological target: Nonstructural protein 1 (Influenza A virus, UniProt Q194T2); assay type: functional, Influenza A virus (A/California/07/2009(H1N1))
Nonstructural protein 1, sequence (Q194T2 whole entry): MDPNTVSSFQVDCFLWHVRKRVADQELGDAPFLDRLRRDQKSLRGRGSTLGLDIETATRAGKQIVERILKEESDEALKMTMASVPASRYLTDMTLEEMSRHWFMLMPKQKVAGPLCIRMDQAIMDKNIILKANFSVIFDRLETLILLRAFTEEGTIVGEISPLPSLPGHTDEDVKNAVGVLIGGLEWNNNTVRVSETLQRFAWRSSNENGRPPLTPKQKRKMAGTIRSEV

[12] = HEp-2 cell cytotoxicity, dose response, cytotoxicity control for RSV inhibitor project, HTS (AID 2410); assay type: functional; conditions: human respiratory syncytial virus
[13] = biological target: T6, Ubiquitin-conjugating enzyme E2 N (Homo sapiens, UniProt P61088); assay type: functional;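 also: Dose-response confirmation in a TR-FRET assay detecting UBC13-driven polyubiquitin chain formation, inhibition measured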
T6 sequence (P61088 whole entry): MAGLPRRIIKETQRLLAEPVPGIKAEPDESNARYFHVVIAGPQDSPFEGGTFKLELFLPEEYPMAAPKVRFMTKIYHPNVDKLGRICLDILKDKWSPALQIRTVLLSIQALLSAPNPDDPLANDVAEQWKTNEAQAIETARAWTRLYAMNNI

[14] = inhibitors of firefly luciferase expression or activity, dose response, H4 neuroglioma cells, luminescence (AID 1990); assay type: functional, cell-based
[15] = Luminescence Cell-Based Dose Response HTS to Identify Inhibitors of 5'UTR Stem-Loop Driven Prion Protein mRNA Translation in H4 Neuroglioblastoma Cells. [Related pubchem assays: 1827 (Project Summary), 1813 (Primary HTS)]; assay type: functional
[16] = inhibitors of SNCA 5'UTR-driven reporter translation, confirmation, H4 neuroglioma cells, luminescence (AID 1988); assay type: functional, cell-based
[17] = microbe, parasite or virus in culture; assay type: functional; conditions: Mycobacterium tuberculosis
[18] = tested on: INS1; assay: beta cell apoptosis inhibitors, cytokine rescue, dose response, luminescence, retest (AID 449756); assay type: functional, cell-based; conditions: Rattus norvegicus;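 also: cell death triggered by IL-1 beta plus TNF-alpha plus IFN-gamma mixture; protective hits raise ATP signal compared with cytokine alone wells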
[19] = biological target: Induced myeloid leukemia cell differentiation protein Mcl-1 (Homo sapiens, UniProt Q07820); assay type: functional
Induced myeloid leukemia cell differentiation protein Mcl-1, sequence (Q07820 whole entry): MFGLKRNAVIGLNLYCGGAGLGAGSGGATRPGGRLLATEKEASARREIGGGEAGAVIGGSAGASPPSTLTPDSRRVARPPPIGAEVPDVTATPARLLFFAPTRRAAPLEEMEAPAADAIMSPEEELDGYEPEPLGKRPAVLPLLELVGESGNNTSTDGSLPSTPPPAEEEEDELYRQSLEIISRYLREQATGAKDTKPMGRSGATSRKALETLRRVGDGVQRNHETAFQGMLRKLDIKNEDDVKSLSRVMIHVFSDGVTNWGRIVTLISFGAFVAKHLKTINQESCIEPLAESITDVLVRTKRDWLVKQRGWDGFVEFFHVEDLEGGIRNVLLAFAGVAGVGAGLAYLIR

[20] = biological target: Luciferin 4-monooxygenase (Photinus pyralis, UniProt P08659); assay: firefly luciferase enzyme inhibitors, dose response, biochemical, luminescence (AID 1891)
Luciferin 4-monooxygenase, sequence (P08659 whole entry): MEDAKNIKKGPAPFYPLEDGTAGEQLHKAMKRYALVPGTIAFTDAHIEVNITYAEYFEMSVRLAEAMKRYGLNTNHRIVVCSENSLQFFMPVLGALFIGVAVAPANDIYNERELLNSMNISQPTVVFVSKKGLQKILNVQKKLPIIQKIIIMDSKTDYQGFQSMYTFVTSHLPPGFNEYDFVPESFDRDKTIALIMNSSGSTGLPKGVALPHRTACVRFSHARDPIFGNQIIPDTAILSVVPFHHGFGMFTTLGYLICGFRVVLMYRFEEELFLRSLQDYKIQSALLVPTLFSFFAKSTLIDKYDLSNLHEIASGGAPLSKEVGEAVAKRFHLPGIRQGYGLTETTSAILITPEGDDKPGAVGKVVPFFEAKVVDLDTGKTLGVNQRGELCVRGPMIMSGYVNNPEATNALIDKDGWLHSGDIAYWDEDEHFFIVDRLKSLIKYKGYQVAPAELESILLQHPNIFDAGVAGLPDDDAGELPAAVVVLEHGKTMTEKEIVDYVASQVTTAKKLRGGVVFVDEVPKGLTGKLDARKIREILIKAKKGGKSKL

[21] = Luminescence Cell-Based Dose Confirmation HTS to Identify Inhibitors of Platelet Dense Granule Release. [Related pubchem assays: 1663 (Primary HTS), 1678 (Summary of Project)]; assay type: functional
[22] = biological target: Cytochrome P450 2D6 (Homo sapiens, UniProt P10635);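 also: CYP2D6 member of a cytochrome P450 panel assay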
Cytochrome P450 2D6, sequence (P10635 whole entry): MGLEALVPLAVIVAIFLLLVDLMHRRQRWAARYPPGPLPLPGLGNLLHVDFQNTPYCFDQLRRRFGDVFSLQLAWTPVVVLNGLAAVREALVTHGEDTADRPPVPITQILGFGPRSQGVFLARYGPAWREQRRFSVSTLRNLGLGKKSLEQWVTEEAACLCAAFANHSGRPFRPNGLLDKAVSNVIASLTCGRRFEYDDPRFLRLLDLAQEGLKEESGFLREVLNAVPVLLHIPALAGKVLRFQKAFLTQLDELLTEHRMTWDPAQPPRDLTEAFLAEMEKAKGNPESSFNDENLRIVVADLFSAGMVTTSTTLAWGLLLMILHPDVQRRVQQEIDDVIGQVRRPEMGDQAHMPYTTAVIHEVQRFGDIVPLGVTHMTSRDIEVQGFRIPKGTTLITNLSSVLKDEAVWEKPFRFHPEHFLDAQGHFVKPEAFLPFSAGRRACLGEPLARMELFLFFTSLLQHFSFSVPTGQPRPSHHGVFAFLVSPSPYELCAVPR

Cytochrome P450 3A4, sequence (P08684 whole entry): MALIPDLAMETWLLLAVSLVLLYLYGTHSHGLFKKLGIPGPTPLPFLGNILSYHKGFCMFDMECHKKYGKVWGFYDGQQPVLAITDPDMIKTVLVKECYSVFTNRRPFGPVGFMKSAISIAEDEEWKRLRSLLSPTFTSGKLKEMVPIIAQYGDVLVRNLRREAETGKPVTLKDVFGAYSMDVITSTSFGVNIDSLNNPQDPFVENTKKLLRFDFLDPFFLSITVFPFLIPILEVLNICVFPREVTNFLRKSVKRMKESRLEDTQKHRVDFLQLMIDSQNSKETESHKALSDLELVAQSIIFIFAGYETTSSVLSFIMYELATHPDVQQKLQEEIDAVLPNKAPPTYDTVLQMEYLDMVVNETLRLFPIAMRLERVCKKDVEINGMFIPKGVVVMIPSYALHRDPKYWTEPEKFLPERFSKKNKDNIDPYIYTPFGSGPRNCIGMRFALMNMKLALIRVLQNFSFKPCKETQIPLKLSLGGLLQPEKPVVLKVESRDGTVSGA

CC(=O)OC1CC2C(C)(C)C(O)C=C[C@@]2(C)C2CC[C@@]3(C)C(c4ccoc4)OC(=O)C4OC43[C@]12C (some centres not stated)
AC50 [1]: 12.6 µM (inconclusive)

O=C(Nc1ccccc1C(=O)O)c1cccc(NC(=O)c2ccc(Br)o2)c1
EC50 [2]: 6.27 µM (active)
EC50 [3]: 6.41 µM (active)
IC50 [4]: 12.1 µM (not active)
EC50 [5]: 9.37 µM (active)

CC(CN1CCCC(C(N)=O)C1)c1ccccc1 (configuration not stated)
EC50 [6]: 1.19 µM (active)

Cc1cc(C(=O)O)ccc1-n1c(C)cc(/C=C(/C#N)C(=O)Nc2ccccc2)c1C
EC50 [7]: > 300 µM (not active)
EC50 [8]: > 300 µM (not active)
IC50 [4]: 12.6 µM (not active)

CCN(CCCNS(=O)(=O)c1cc(-c2cc(C)no2)ccc1C)Cc1ccccc1
EC50 [6]: 0.299 µM (active)

COc1cccc(O)c1O [3-METHOXYCATECHOL]
AC50 [1]: 20 µM (inconclusive)

CC(=O)OC1CCC2(C)C3=C(CCC2C1(C)C)[C@]1(C)CCC(C(C)CCC=C(C)C)[C@]1(C)CC3 (some centres not stated)
AC50 [1]: 31.6 µM (inconclusive)

C=CC(C1=CC(=O)C=CC1=O)c1ccccc1 (configuration not stated) [DALBERGIONE]
AC50 [1]: 31.6 µM (inconclusive)

Cc1cc2ccccc2n1CCNC(=O)C(C)Oc1ccccc1 (configuration not stated)
EC50 [9]: 0.705 µM (active)
EC50 [10]: 13.8 µM (active)
IC50 [11]: 64.6 µM (active)

N=C1C=CC(=C(c2cccc(N)c2)c2cccc(N)c2)C=C1
AC50 [1]: 5.01 µM (active)

CC(C)CC1(C(=O)NCc2ccccn2)C=CCN1C(=O)c1ccccc1 (configuration not stated)
AC50 [1]: 15.8 µM (inconclusive)

CCOC(=O)c1c(C)[nH]c(C(=O)COC(=O)C23CC4CC(CC(Cl)(C4)C2)C3)c1C
CC50 [12]: > 50 µM (active)
IC50 [4]: 4.08 µM (not active)

O=[N+]([O-])c1ccc(N=Nc2ccc(O)c3ccccc23)cc1
IC50 [11]: 25.9 µM (active)

CCN1C(NCc2ccc(OC)cc2)=N[C@@H](CCc2ccccc2)[C@H](C(=O)NCc2ccc(OC)cc2)[C@H]1C
IC50 [13]: > 20 µM (inactive)

O=C(CN1C(=O)C2CCCCC2C1=O)Nc1nc(-c2ccccn2)cs1 (configuration not stated)
EC50 [14]: > 120 µM (not active)
EC50 [15]: 14.3 µM (active)
EC50 [16]: > 120 µM (not active)
IC50 [11]: 16 µM (active)

C#Cc1cccc(C(=O)NC2CCCN(C3Cc4ccccc4C3)C2)c1 (configuration not stated)
EC50 [6]: 0.596 µM (active)

C=C(C)C(O)/C=C/C=C/c1ccccc1 (configuration not stated)
AC50 [1]: 3.98 µM (inconclusive)

COC(=O)C1=C(c2ccc(OCc3ccccc3)cc2)C[C@@H]2CC[C@H]1N2C(=O)NC1CCN(Cc2ccccc2)CC1
CC50 [17]: 17.6 µM (active)
IC50 [13]: > 20 µM (inactive)
AC50 [18]: 3.96 µM (active)

COc1ccc2nc(NN=C(C)c3ccccn3)cc(C)c2c1
IC50 [11]: 7.94 µM (active)

CCOc1ccccc1C1CC(c2ccc(Cl)cc2)Nc2nc(N)nn21 (configuration not stated)
EC50 [6]: 11.9 µM (active)

Cc1ccc(NS(=O)(=O)c2cc([N+](=O)[O-])ccc2NNC(=S)Nc2cccc(Cl)c2)c(C)c1
IC50 [19]: 5.74 µM (not active)
IC50 [11]: 17 µM (active)

COc1cccc(/C=N/Nc2ccnc(O)n2)c1O
EC50 [20]: > 112 µM (not active)
EC50 [21]: 10.7 µM (active)
IC50 [11]: 10.6 µM (active)
AC50 [18]: 0.67 µM (active)

CC(N)Cc1c[nH]c2cc3c(cc12)OCCO3 (configuration not stated)
EC50 [6]: 1.33 µM (active)

COc1ccc(CNn2c(C)nc3ccccc3c2=O)cc1
IC50 [13]: > 20 µM (inactive)
AC50 [22]: 25.1 µM (inconclusive)
